These antisense oligonucleotides have a phosphorothioate backbone; sugars and methylation of C are not fully specified.
The sequences below were run against PRKAR2A. Conditions: ASO.
Further: test concentration or dose not given here.

Compared with AAGGAGAATATCTTTGCAAG, AATGCCCATAACCACAGCAA is lower in remaining target (mRNA or protein) (fraction of control): ≥ 1 for the first, 0.39 for the second.

Going from AGGCGGGTGAAGTACTCCAC to ATAACTAAGCATTTGACATC, the remaining target (mRNA or protein) (fraction of control) rises from 0.46 to 0.94.

First: ATCTGGATGTGGCTCATGCC
Second: ATCTGTATCTTCCTCTTCCT
The remaining target (mRNA or protein) (fraction of control) of the first is higher: 0.82 for the first, 0.73 for the second.

Going from ATGTGGCTCATGCCGGCGGC to CAATGACATGCTCATCAGCT, the remaining target (mRNA or protein) (fraction of control) falls from 0.95 to 0.74.

Compared with CACACCTACTGCCCGAGGTT, CAGGAACAGTTCTGTCATGT is higher in remaining target (mRNA or protein) (fraction of control): 0.38 for the first, 0.65 for the second.

Going from CATGCCGGCGGCGGCCGAAG to CCATGCAGGGCCCCAGAAGC, the remaining target (mRNA or protein) (fraction of control) falls from ≥ 1 to 0.52.

Compared with CCCGAGGTTGCCCAGATCCA, CGCACGGCCCCGGCTCACGT is lower in remaining target (mRNA or protein) (fraction of control): ≥ 1 for the first, 0.68 for the second.

These sequences were tested against CHEK2. Conditions: ASO.

First: AAACTTTCTCTTCATGTCTT
Second: AACATCCGACTCCCGAGACA
The remaining target (mRNA or protein) (fraction of control) of the first is higher: ≥ 1 for the first, 0.65 for the second.

Going from AACTTCTTGACAAGGTCCAG to AAGGCTTCTTCTGTCGTAAA, the remaining target (mRNA or protein) (fraction of control) rises from 0.8 to 0.96.

Compared with AAGGGCCCATAATCGAGCCC, AATCCGAAAGTGTTTCTTGC is higher in remaining target (mRNA or protein) (fraction of control): 0.78 for the first, ≥ 1 for the second.

First: AGAATAACTCCTAAACTCCA
Second: AGCAGTCCCAACAGAAACAA
The remaining target (mRNA or protein) (fraction of control) of the first is lower: 0.82 for the first, 0.95 for the second.

Compared with AGGAATAGAATAGAGTTCCT, ATTCTCTGGCTTTAAGTCAC is lower in remaining target (mRNA or protein) (fraction of control): ≥ 1 for the first, 0.63 for the second.

Compared with ATTTCTGCTTAGTGACAGTG, CAGAGTGAAAGAAGGACATT is higher in remaining target (mRNA or protein) (fraction of control): 0.65 for the first, ≥ 1 for the second.

First: CAGTAGTTGTCATTCACACA
Second: CAGTGTCCCAGAGCTGGAGT
The remaining target (mRNA or protein) (fraction of control) of the first is lower: 0.49 for the first, ≥ 1 for the second.

Compared with CATGAGAGAGGTCTCTCCCA, CCACGGAGTTCACAACACAG is lower in remaining target (mRNA or protein) (fraction of control): 0.85 for the first, 0.74 for the second.

First: CCATCAATTCCAAAACAATA
Second: CCATTGCCACTGTGATCTTC
The remaining target (mRNA or protein) (fraction of control) of the first is higher: ≥ 1 for the first, 0.46 for the second.

Going from CGTGCTGGTAGAGGAGCTGG to CTCTCGAAAGCCAGCTTTAC, the remaining target (mRNA or protein) (fraction of control) falls from 0.77 to 0.31.

Compared with CTTGGGACTGGGTAACGCTG, GAAGCCACGGGTGTCTTAAG is lower in remaining target (mRNA or protein) (fraction of control): 0.93 for the first, 0.86 for the second.

First: GACGGCGTTTTCCTTTCCCT
Second: GACTTCAGGAATGAAGTTGT
The remaining target (mRNA or protein) (fraction of control) of the first is lower: 0.49 for the first, ≥ 1 for the second.

Compared with GAGAGCTGGGTCTGCCTCTC, GTACTGCACAGCCAAGAGCA is higher in remaining target (mRNA or protein) (fraction of control): 0.73 for the first, 0.79 for the second.

Compared with GTAGAGCTGTGGATTCATTT, TAATCTTTATAAGACAGTCC is higher in remaining target (mRNA or protein) (fraction of control): 0.67 for the first, 0.88 for the second.

Compared with TATTCATCTCTTAATGCCTT, TATTCCATAATTAAATCCAA is higher in remaining target (mRNA or protein) (fraction of control): 0.61 for the first, ≥ 1 for the second.

First: TCAGCAGTGGTTCATCAAAG
Second: TCAGTGACACTTGAGTCCTA
The remaining target (mRNA or protein) (fraction of control) of the first is lower: 0.63 for the first, 0.87 for the second.

First: TCCACAGCACGGTTATACCC
Second: TCCTTTTGCTGATGATCTTT
The remaining target (mRNA or protein) (fraction of control) of the first is lower: 0.28 for the first, 0.57 for the second.

Going from TGAGATGACAGTAAAACATT to TGTTCAAACCACGGAGTTCA, the remaining target (mRNA or protein) (fraction of control) falls from ≥ 1 to 0.62.

First: TTCTCTGAGACTTCTGCCCA
Second: TTTATTCCCCACCACTTTGT
The remaining target (mRNA or protein) (fraction of control) of the first is higher: 0.49 for the first, 0.38 for the second.

First: TTTGTGGTCTCGGCACCCTC
Second: TTTTAATCTTGATGATGCAA
The remaining target (mRNA or protein) (fraction of control) of the first is higher: 0.77 for the first, 0.71 for the second.

From the OligoGym collection
